# In BindingDB's records for patent US20240294551 (Amgen, 2024):
# Key:
# GTPase KRas [G12D] = GTPase KRas [G12D] (Homo sapiens, UniProt P01116, G12D); test: TR-FRET Assay
# Protocol: Compounds of interest were prepared in a dose-response titration in DMSO, and 80 nL were added via Labcyte Echo to each well of a 384-well plate (Perkin Elmer 6008280). The His-tagged KRAS G12D protein (Amgen) was diluted to 20 nM in Assay Buffer (20 mM HEPES, pH 7.4, 10 mM MgCl2, 50 mM NaCl, 0.1% BSA, 0.01% Tween-20, 10 μM GDP) and 2 μL was added to the appropriate wells of the 384-well plate. The plate was incubated for 30 minutes at room temperature. Biotinylated KRPep-2d substrate (Amgen) was diluted to 20 nM in Assay Buffer and 2 μL was added to all wells and incubated for 1 hour at room temperature. Detection Reagent (0.4 nM LANCE Eu-W1024 Anti-6×His (Perkin Elmer AD0401), 5 nM streptavidin-d2 (Cisbio 610SADLA)) was prepared in Assay Buffer, then 4 μL was added to the plate and incubated for 1 hour at room temperature. Plates were read using PerkinElmer EnVision (ex: 320 nm, em1: 665 nm, em2: 615 nm) and em1/em2 data was used to generate curve fits using a 4-parameter logistic model to calculate IC50 values.
# GTPase KRas [G12D,C118A] = GTPase KRas [G12D,C118A] (Homo sapiens, UniProt P01116, C118A/G12D); test: Coupled Nucleotide Exchange Assay
# Chain of GTPase KRas [G12D,C118A] (P01116 whole entry G12D/C118A, looked up, the tested form may be a part): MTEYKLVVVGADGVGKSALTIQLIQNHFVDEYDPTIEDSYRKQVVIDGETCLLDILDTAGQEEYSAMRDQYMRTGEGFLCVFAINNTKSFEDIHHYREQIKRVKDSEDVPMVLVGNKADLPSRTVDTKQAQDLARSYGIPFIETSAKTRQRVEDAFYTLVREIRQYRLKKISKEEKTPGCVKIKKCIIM
# Protocol: Following compound pre-incubation, purified SOS protein (aa 564-1049) and GTP (Roche 10106399001) were added to the assay wells and incubated for an additional 30 min. To determine the extent of inhibition of SOS-mediated nucleotide exchange, purified GST-tagged cRAF (aa 1-149), nickel chelate AlphaLISA acceptor beads (PerkinElmer AL108R), and AlphaScreen glutathione donor beads (PerkinElmer 6765302) were added to the assay wells and incubated for 10 minutes. The assay plates were then read on a PerkinElmer EnVision Multilabel Reader, using AlphaScreen technology, and data were analyzed using a 4-parameter logistic model to calculate IC50 values.
# Chain of GTPase KRas [G12D] (P01116 whole entry G12D): as the sequence (P01116 whole entry G12D/C118A, looked up, the tested form may be a part) above, with A118C counted along it
SMILES,IC50 (GTPase KRas [G12D]),"IC50 (GTPase KRas [G12D,C118A])"
"Cc1cc2[nH]ncc2c2c1CCCOC(=O)N1CC[C@@H]3CCN(C[C@@H]31)c1nc(OC[C@@]34CCCN3C[C@H](F)C4)nc3c(F)c-2ncc13 (mixture of isomers) [US20240294551, Example 75]",20 nM,13 nM
"Cc1cc2[nH]ncc2c2c1CCCOC(=O)O[C@@H]1COCCN(C1)c1nc(OC[C@@]34CCCN3C[C@H](F)C4)nc3c(F)c-2c(F)cc13 [US20240294551, Example 102]",3 nM,2 nM
"Fc1c2ncc3c(nc(OC[C@@]45CCCN4C[C@H](F)C5)nc13)N1CCC[C@@H](CSCCCCc3c(Cl)cc4[nH]ncc4c3-2)C1 [US20240294551, Example 143]",3 nM,2 nM
"Fc1c2ncc3c(nc(OC[C@@]45CCCN4C[C@H](F)C5)nc13)N1CCC[C@H](C1)c1coc(n1)CCCc1c(Cl)cc3[nH]ncc3c1-2 [US20240294551, Example 157]",2 nM,1 nM
"Cc1cc2[nH]ncc2c2c1CCCOC(=O)O[C@@H]1COCCN(C1)c1nc(OC[C@@]34CCCN3C[C@H](F)C4)nc3c(F)c-2ccc13 [US20240294551, Example 192]",4 nM,2 nM
"CN(C)CC1(COc2nc3c4cnc(c(F)c4n2)-c2c(c(Cl)cc4[nH]ncc24)CCCOC(=O)O[C@@H]2COCCN3C2)CC1 [US20240294551, Example 195]",4 nM,2 nM
"Fc1c2ncc3c(nc(OC[C@@]45CCCN4C[C@H](F)C5)nc13)N1CCOC[C@H](C1)c1noc(n1)CCCc1c(Cl)cc3[nH]ncc3c1-2 [US20240294551, Example 381]",5 nM,1 nM
"O[C@@H]1CCOCCc2c(Cl)cc3[nH]ncc3c2-c2ncc3c(nc(OC[C@@]45CCCN4C[C@H](F)C5)nc3c2F)N2CCC[C@@H]1C2 [US20240294551, Example 404]",10 nM,6 nM
